Columns and labels:
[1] = test system: TNBS-induced Colits in the rat; assay: TNBS-induced colitis in the rat, intrarectal administration; type: in vivo; conditions: for max Colon width: lowest dose that impacts the parameter to a relevant extent (inhibition of the TNBS-induced increase): TNBS 30 mg/kg rectally, compound intrarectal twice daily days -1 to +2, sacrificed day 2; for Thymus weight: lowest dose that impacts the parameter to a relevant extent (amplification of the TNBS-induced decrease) / Weight of adrenal glands: lowest dose that impacts the parameter to a relevant extent (inhibition of the TNBS-induced increase): TNBS colitis, intrarectal twice daily, side effect parameter
Method: As an animal model of Inflammatory Bowel Disease, the TNBS-induced Colits in the rat had been used.
48 h fasted rats (220-250 g b.w.) received rectally 0,9 ml of a solution consisting of 30% ethanol, 30 mg/kg TNBS (Trinitrobenzoesulfonic acid) in an oral distance of 8-9 cm from the anus. Compound administration days −1 to +2. Animals were sacrified on day 2. For intrarectal administration the compounds were solved in 1% ethanol, 10% Propyleneglycol and 20% Cyclodextrin. The used range of concentrations was identical for all compounds. Intrarectal administration schedule: twice daily. Compounds used: Ciclesonide and for comparison, Budesonide and Dexamethasone.
As parameters for the estimation of the pharmacological effects of the compounds, max. colon width had been used. As for the estimation of potential side effects, the weights of thymus and adrenal glands have been registrated.
The efficacy of a treatment was calculated on the reference of controls that received either no TNBS or TNBS rectally, establishing the range of 100 to 0% inhibition, respectively, in the drug screening.

[2] = human; cited from earlier work

Structure (SMILES)	max Colon width: lowest dose that impacts the parameter to a relevant extent (inhibition of the TNBS-induced increase) [1]	Thymus weight: lowest dose that impacts the parameter to a relevant extent (amplification of the TNBS-induced decrease) ([1]; highest assessed dose 6.9)	Weight of adrenal glands: lowest dose that impacts the parameter to a relevant extent (inhibition of the TNBS-induced increase) ([1]; highest assessed dose 6.9)	Thymus weight: lowest dose that impacts the parameter to a relevant extent (amplification of the TNBS-induced decrease) ([1]; highest assessed dose 6.9, listed as ciclesonide) [μmol/animal]	Oral bioavailability [2]	Weight of adrenal glands: lowest dose that impacts the parameter to a relevant extent (inhibition of the TNBS-induced increase) ([1]; highest assessed dose 6.9, listed as budenoside)
CC(C)C(=O)OCC(=O)[C@@]12O[C@H](C3CCCCC3)O[C@@H]1C[C@H]1[C@@H]3CCC4=CC(=O)C=C[C@]4(C)[C@H]3[C@@H](O)C[C@@]12C [Ciclesonide, [11β,16α(R)]-16,17-[(cyclohexylmethylene)bis(oxy)]-11-hydroxy-21-(2-methyl-1-oxopropoxy)pregna-1,4-diene-3,20-dione]	2.3 μmol/animal	n.e. @ 6.9 μmol/animal	2.3 μmol/animal	> 6.9	below 1%	–
C[C@@H]1C[C@H]2[C@@H]3CCC4=CC(=O)C=C[C@]4(C)[C@@]3(F)[C@@H](O)C[C@]2(C)[C@@]1(O)C(=O)CO [Dexamethasone]	0.69 μmol/animal	–	–	–	–	–
CCCC1O[C@@H]2C[C@H]3[C@@H]4CCC5=CC(=O)C=C[C@]5(C)[C@H]4[C@@H](O)C[C@]3(C)[C@]2(C(=O)CO)O1 (stereo partly shown) [Budesonide]	2.3-6.9 μmol/animal	2.3 μmol/animal	n.e. @ 6.9 μmol/animal	–	–	does not reverse

Source: patent US20060211668A1, “Use of ciclesonide for the treatment of inflammatory bowel diseases” (ALTANA PHARMA AG, priority 2003, published 2006)
